# Laboratory results taken from patent publication US12534465B2, “5H-pyrrolo[3,2-d]pyrimidine-2,4-diamino compounds and antibody conjugates thereof” (SUTRO BIOPHARMA, INC., priority 2019, dated 2026).
# Target: T1, human TLR8 (Homo sapiens, UniProt Q9NR97)
# T1 construct: host or cells: HEK293
# T1 sequence (Q9NR97 27-1041): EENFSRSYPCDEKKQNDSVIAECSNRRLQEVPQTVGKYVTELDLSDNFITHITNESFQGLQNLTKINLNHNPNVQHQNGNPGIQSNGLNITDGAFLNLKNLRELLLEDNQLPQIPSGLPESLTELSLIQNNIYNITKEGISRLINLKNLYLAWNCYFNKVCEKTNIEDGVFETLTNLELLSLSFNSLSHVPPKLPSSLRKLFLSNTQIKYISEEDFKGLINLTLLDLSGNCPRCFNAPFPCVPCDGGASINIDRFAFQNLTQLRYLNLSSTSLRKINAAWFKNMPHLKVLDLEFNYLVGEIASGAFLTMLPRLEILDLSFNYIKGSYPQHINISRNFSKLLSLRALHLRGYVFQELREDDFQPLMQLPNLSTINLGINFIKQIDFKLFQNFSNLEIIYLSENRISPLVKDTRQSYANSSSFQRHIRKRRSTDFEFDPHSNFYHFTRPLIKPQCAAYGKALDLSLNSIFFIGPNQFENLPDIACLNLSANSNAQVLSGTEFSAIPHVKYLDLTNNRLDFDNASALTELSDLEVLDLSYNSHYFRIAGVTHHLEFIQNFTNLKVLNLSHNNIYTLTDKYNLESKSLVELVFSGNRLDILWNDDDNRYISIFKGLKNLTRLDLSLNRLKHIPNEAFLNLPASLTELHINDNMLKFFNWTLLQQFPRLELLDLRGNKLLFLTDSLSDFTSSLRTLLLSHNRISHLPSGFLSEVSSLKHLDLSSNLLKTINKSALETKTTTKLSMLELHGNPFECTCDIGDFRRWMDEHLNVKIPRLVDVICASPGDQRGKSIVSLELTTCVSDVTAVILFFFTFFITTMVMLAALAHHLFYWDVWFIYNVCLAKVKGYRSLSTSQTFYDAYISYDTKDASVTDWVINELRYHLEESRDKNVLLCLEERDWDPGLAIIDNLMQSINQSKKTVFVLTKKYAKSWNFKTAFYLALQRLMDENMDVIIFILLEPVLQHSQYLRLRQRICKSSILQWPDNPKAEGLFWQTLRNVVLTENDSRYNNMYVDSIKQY
# Assay: HEK293-humanTLR8 SEAP reporter assay (Example 8)
# Type: cell-based
# Conditions: HEK293-hTLR8 SEAP reporter cells, 24 hrs
# Protocol: In this example, the in vitro activity of compounds to activate human TLR7 (or human TLR8 or mouse TLR7) pathway was evaluated on HEK293 reporter cells transfected with human TLR7 (or human TLR8 or mouse TLR7) and an inducible SEAP (secreted embryonic alkaline phosphatase) reporter gene. The SEAP reporter gene is placed under the control of the IFN-β minimal promoter fused to five NF-κB and AP-1-binding sites. Stimulation with a TLR7 agonist activates NF-κB and AP-1 which induces the production of SEAP. Levels of SEAP were determined by HEK-Blue Detection medium.
# The in vitro activity of compounds on TLR7 (human and mouse) and TLR8 (human only) reporter cell lines was assessed as follows. 5-(2-methoxy-4-(piperazin-1-ylmethyl)benzyl)-N4-pentyl-5H-pyrrolo[3,2-d]pyrimidine-2,4-diamine (Compound 1) is a compound used for comparison and has the structure shown below:
# HEK293-humanTLR7 (hTLR7), HEK293-mouseTLR7 (mTLR7) and HEK293-humanTLR8 (hTLR8) reporter cell lines were purchased from Invivogen and cell lines were maintained in the manufacturer's recommended culture medium with required supplemental antibiotics. On the day of assay, the cells were harvested with Accutase and counted by the Vi-CELL Cell Viability Analyzers. Cells were resuspended in HEK blue detection medium and a total of 10,000 cells were seeded in each well of a 384-well flat bottom plate. Serial dilutions of test compounds (1:4 serial dilution starting from 5 μM) were added into treatment wells and assay plates were cultured at 37° C. in a CO2 incubator for 24 hrs. The plates were then read by spectrophotometry at 640 nm. Data was fitted with non-linear regression analysis, using a log(inhibitor) vs. response-variable slope, 3-parameter fit with GraphPad Prism. There result was reported in Table 1 as EC50 (the midpoint of the curve, or concentration at which 50% of the maximum effect was observed).
row,Compound,EC50
1,"CCCCCNc1nc(N)nc2ccn(Cc3ccc(CN4CCNCC4)cc3OC)c12 [Compound 1, 5-(2-methoxy-4-(piperazin-1-ylmethyl)benzyl)-N4-pentyl-5H-pyrrolo[3,2-d]pyrimidine-2,4-diamine, reference compound]",0.338 µM
2,"CCCCCNc1nc(N)nc2ccn(Cc3ccc(CN4CC(NC)C4)cc3OC)c12 [Compound 2, 5-(2-methoxy-4-((3-(methylamino)azetidin-1-yl)methyl)benzyl)-N4-pentyl-5H-pyrrolo[3,2-d]pyrimidine-2,4-diamine]",0.367 µM
3,"CCCCCNc1nc(N)nc2ccn(Cc3ccc(CN4CC5(CNCCO5)C4)cc3OC)c12 [Compound 10, 5-[[2-methoxy-4-(5-oxa-2,8-diazaspiro[3.5]nonan-2-ylmethyl)phenyl]methyl]-N4-pentyl-pyrrolo[3,2-d]pyrimidine-2,4-diamine]",0.342 µM
